US10765114B2, “4-amino-6-(pyridyl and 2-substitutedphenyl)-picolinates and 6-amino-2-(pyridyl and 2-substitutedphenyl)-pyrimidine-4-carboxylates and their use as herbicides” (Dow AgroSciences LLC, priority 2013, dated 2020)
Read-outs that look alike come from different tables or passages of the source.

Legend:
[1] = tested on: Key Grass and Sedge Weeds as well as Grass Crops; test: Post-Emergent Test II (Table 6); format: in vivo; conditions: given as numbers; for Visual Growth Reduction (%) 14 Days After Application, CYPSS: CYPSS (CYPES: yellow nutsedge, Cyperus esculentus); for Visual Growth Reduction (%) 14 Days After Application, DIGSA: DIGSA: crabgrass (Digitaria sanguinalis); for Visual Growth Reduction (%) 14 Days After Application, ECHSS: ECHSS (ECHCG: barnyardgrass, Echinochloa crus-galli); for Visual Growth Reduction (%) 14 Days After Application, ORYSS: ORYSS (ORYSA: rice, Oryza sativa); for Visual Growth Reduction (%) 14 Days After Application, ORYSS / Visual Growth Reduction (%) 14 Days After Application, TRZSS / Visual Growth Reduction (%) 14 Days After Application, ZEAMX: crop; for Visual Growth Reduction (%) 14 Days After Application, SETFA: SETFA: giant foxtail (Setaria faberi); for Visual Growth Reduction (%) 14 Days After Application, SORVU: SORVU: johnsongrass (Sorghum vulgare); for Visual Growth Reduction (%) 14 Days After Application, TRZSS: TRZSS (TRZAS: wheat, spring, Triticum aestivum); for Visual Growth Reduction (%) 14 Days After Application, ZEAMX: ZEAMX: maize, corn (Zea mays)
Description: (§1) Seeds or nutlets of the desired test plant species were planted in Sun Gro Metro-Mix® 360 planting mixture, which typically has a pH of 6.0 to 6.8 and an organic matter content of about 30 percent, in plastic pots with a surface area of 64 square centimeters. When required to ensure good germination and healthy plants, a fungicide treatment and/or other chemical or physical treatment was applied. The plants were grown for 7-21 days in a greenhouse with an approximate 15 h photoperiod which was maintained at about 23-29° C. during the day and 22-28° C. during the night. Nutrients and water were added on a regular basis and supplemental lighting was provided with overhead metal halide 1000-Watt lamps as necessary. The plants were employed for testing when they reached the first or second true leaf stage.
(§2) A weighed amount, determined by the highest rate to be tested, of each test compound was placed in a 25 mL glass vial and was dissolved in 4 mL of a 97:3 v/v mixture of acetone and DMSO to obtain concentrated stock solutions. […] The concentrated stock solutions obtained were diluted with 20 mL of an aqueous mixture containing acetone, water, isopropyl alcohol, DMSO, Atplus 411F crop oil concentrate, and Triton® X-155 surfactant in a 48.5:39:10:1.5:1.0:0.02 v/v ratio to obtain spray solutions containing the highest application rates. Additional application rates were obtained by serial dilution of 12 mL of the high rate solution into a solution containing 2 mL of 97:3 v/v mixture of acetone and DMSO and 10 mL of an aqueous mixture containing acetone, water, isopropyl alcohol, DMSO, Atplus 411F crop oil concentrate, and Triton X-155 surfactant in a 48.5:39:10:1.5:1.0:0.02 v/v ratio to obtain ½×, ¼×, ⅛× and 1/16× rates of the high rate. Compound requirements are based upon a 12 mL application volume at a rate of 187 liters per hectare (L/ha). Formulated compounds were applied to the plant material with an overhead Mandel track sprayer equipped with 8002E nozzles calibrated to deliver 187 L/ha over an application area of 0.503 square meters at a spray height of 18 inches (43 cm) above the average plant canopy height. Control plants were sprayed in the same manner with the solvent blank.
(§3) The treated plants and control plants were placed in a greenhouse as described above and watered by subirrigation to prevent wash-off of the test compounds. After 14 days, the condition of the test plants as compared with that of the untreated plants was determined visually and scored on a scale of 0 to 100 percent where 0 corresponds to no injury and 100 corresponds to complete kill and presented as indicated in Table A. Some of the compounds tested, application rates employed, plant species tested, and results are given in Table 5.

[2] = tested on: Key Broadleaf Weed and Crop Species; test: Post-Emergent Test II (Table 5); format: in vivo; conditions: post-emergence, 336 h, given as numbers; for pest or weed control at 70 g/ha: application rate 70 (kg ai/ha; footnote: g ai/ha); for pest or weed control at 140 g/ha: application rate 140 (kg ai/ha; footnote: g ai/ha)
Description: as §1, §2, §3

[3] = Abutilon theophrasti, ABUTH: velvetleaf (Abutilon theophrasti), read-out: Visual Growth Reduction (%) 14 Days After Application ABUTH
[4] = Amaranthus retroflexus, AMARE: redroot pigweed (Amaranthus retroflexus), read-out: Visual Growth Reduction (%) 14 Days After Application AMARE
[5] = Brassica napus, BRSSS: oilseed rape, canola (Brassica napus), read-out: Visual Growth Reduction (%) 14 Days After Application BRSSS
[6] = Chenopodium album, CHEAL: lambsquarters (Chenopodium album), read-out: Visual Growth Reduction (%) 14 Days After Application CHEAL
[7] = Euphorbia heterophylla, EPHHL: wild poinsettia (Euphorbia heterophylla), read-out: Visual Growth Reduction (%) 14 Days After Application EPHHL
[8] = Helianthus annuus, HELAN: sunflower (Helianthus annuus), read-out: Visual Growth Reduction (%) 14 Days After Application HELAN
[9] = Viola tricolor, VIOTR: wild pansy (Viola tricolor), read-out: Visual Growth Reduction (%) 14 Days After Application VIOTR

Row | melting point | SMILES | Visual Growth Reduction (%) 14 Days After Application, CYPSS ([1]; 70 g ai/ha) | Visual Growth Reduction (%) 14 Days After Application, CYPSS ([1]; 140 g ai/ha) | Visual Growth Reduction (%) 14 Days After Application, DIGSA ([1]; 70 g ai/ha) | Visual Growth Reduction (%) 14 Days After Application, DIGSA ([1]; 140 g ai/ha) | Visual Growth Reduction (%) 14 Days After Application, ECHSS ([1]; 70 g ai/ha) | Visual Growth Reduction (%) 14 Days After Application, ECHSS ([1]; 140 g ai/ha) | Visual Growth Reduction (%) 14 Days After Application, ORYSS ([1]; 70 g ai/ha) | Visual Growth Reduction (%) 14 Days After Application, ORYSS ([1]; 140 g ai/ha) | Visual Growth Reduction (%) 14 Days After Application, SETFA ([1]; 70 g ai/ha) | Visual Growth Reduction (%) 14 Days After Application, SETFA ([1]; 140 g ai/ha) | Visual Growth Reduction (%) 14 Days After Application, SORVU ([1]; 70 g ai/ha) | Visual Growth Reduction (%) 14 Days After Application, SORVU ([1]; 140 g ai/ha) | Visual Growth Reduction (%) 14 Days After Application, TRZSS ([1]; 70 g ai/ha) | Visual Growth Reduction (%) 14 Days After Application, TRZSS ([1]; 140 g ai/ha) | Visual Growth Reduction (%) 14 Days After Application, ZEAMX ([1]; 70 g ai/ha) | Visual Growth Reduction (%) 14 Days After Application, ZEAMX ([1]; 140 g ai/ha) | pest or weed control at 70 g/ha [2, 3] | pest or weed control at 140 g/ha [2, 3] | pest or weed control at 70 g/ha [2, 4] | further results
1 | 140 to 143 °C | CCc1c(-c2cc(N)c(Cl)c(C(=O)OC)n2)ccc(Cl)c1F [Compound 21] |  |  |  |  |  |  |  |  |  |  |  |  |  |  |  |  |  |  |  | 
2 | 144 to 146 °C | COC(=O)c1nc(-c2ccc(C(F)F)nc2)c(F)c(N)c1Cl [Compound 34, methyl 4-amino-5-chloro-6′-(difluoromethyl)-3-fluoro-2,3′-bipyridine-6-carboxylate] |  |  |  |  |  |  |  |  |  |  |  |  |  |  |  |  |  |  |  | 
3 |  | C=Cc1c(C(=O)O)nc(-c2ccc(C(F)(F)F)nc2)c(F)c1N [Compound 101] | 80% | 80% | 0% | 10% | 80% | 60% | 40% | 95% | 20% | 40% | 45% | 75% | 10% | 40% | 0% | 25% | 85% | 85% | 100% | pest or weed control at 140 g/ha [2, 4]: 100%; pest or weed control at 70 g/ha [2, 5]: 70%; pest or weed control at 140 g/ha [2, 5]: 80%; pest or weed control at 70 g/ha [2, 6]: 100%; pest or weed control at 140 g/ha [2, 6]: 98%; pest or weed control at 70 g/ha [2, 7]: 98%; pest or weed control at 140 g/ha [2, 7]: 100%; pest or weed control at 70 g/ha [2, 8]: 80%; pest or weed control at 140 g/ha [2, 8]: 85%; pest or weed control at 70 g/ha [2, 9]: 75%; pest or weed control at 140 g/ha [2, 9]: 80%
4 |  | C=Cc1c(N)nc(-c2ccc(C(F)(F)F)nc2)nc1C(=O)O [Compound 102] | 10% | 35% | 0% | 0% | 30% | 70% | 0% | 0% | 0% | 0% | 0% | 0% | 0% | 10% | 0% | 0% | 15% | 15% | 85% | pest or weed control at 140 g/ha [2, 4]: 100%; pest or weed control at 70 g/ha [2, 5]: 20%; pest or weed control at 140 g/ha [2, 5]: 35%; pest or weed control at 70 g/ha [2, 6]: 80%; pest or weed control at 140 g/ha [2, 6]: 75%; pest or weed control at 70 g/ha [2, 7]: 85%; pest or weed control at 140 g/ha [2, 7]: 100%; pest or weed control at 70 g/ha [2, 8]: 65%; pest or weed control at 140 g/ha [2, 8]: 75%; pest or weed control at 70 g/ha [2, 9]: 35%; pest or weed control at 140 g/ha [2, 9]: 80%
